Measurements as given in ChEMBL document CHEMBL5465560, “Selectivity Literature for EUbOPEN Chemogenomic Library” (2024).
One block for each molecule: values may come before it.

Columns and labels:
[1] = molecular target: Fibroblast growth factor receptor 1 (Homo sapiens, UniProt P11362); assay: Selectivity interaction (Kinase panel (Z-LYTE Assay)) EUB0001632a FGFR1; settings: at 10 µM
KCNE1 = KCNE1 (Homo sapiens, UniProt P15382); assay: Selectivity interaction (Panel of kinases, GPCRs, ion channels and transporters (enzymatic assay)) EUB0000266bCl KCNE1
[2] = molecular target: T1, Activin receptor type-1B (Homo sapiens) (UniProt P36896); assay: Selectivity interaction (Upstate Kinase Profiler service (Millipore)) EUB0000056c ACVR1B; settings: at 1 µM
T1 sequence (whole entry): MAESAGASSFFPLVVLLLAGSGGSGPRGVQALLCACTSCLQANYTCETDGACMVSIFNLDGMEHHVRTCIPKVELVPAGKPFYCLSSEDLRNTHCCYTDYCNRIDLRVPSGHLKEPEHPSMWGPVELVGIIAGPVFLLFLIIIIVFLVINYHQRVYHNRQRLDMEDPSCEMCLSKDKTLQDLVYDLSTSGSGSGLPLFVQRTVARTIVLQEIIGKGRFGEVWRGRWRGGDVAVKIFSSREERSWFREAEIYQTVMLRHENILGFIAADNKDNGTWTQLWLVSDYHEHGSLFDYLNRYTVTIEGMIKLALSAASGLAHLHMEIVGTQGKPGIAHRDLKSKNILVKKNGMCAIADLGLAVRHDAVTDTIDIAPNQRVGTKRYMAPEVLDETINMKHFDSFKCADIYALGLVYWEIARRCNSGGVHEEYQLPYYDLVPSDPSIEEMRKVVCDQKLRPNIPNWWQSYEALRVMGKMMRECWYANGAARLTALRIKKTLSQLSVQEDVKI

[3] = molecular target: Hepatocyte growth factor receptor (Homo sapiens, UniProt P08581); settings: at 10 µM
Chain of Hepatocyte growth factor receptor (P08581 whole entry): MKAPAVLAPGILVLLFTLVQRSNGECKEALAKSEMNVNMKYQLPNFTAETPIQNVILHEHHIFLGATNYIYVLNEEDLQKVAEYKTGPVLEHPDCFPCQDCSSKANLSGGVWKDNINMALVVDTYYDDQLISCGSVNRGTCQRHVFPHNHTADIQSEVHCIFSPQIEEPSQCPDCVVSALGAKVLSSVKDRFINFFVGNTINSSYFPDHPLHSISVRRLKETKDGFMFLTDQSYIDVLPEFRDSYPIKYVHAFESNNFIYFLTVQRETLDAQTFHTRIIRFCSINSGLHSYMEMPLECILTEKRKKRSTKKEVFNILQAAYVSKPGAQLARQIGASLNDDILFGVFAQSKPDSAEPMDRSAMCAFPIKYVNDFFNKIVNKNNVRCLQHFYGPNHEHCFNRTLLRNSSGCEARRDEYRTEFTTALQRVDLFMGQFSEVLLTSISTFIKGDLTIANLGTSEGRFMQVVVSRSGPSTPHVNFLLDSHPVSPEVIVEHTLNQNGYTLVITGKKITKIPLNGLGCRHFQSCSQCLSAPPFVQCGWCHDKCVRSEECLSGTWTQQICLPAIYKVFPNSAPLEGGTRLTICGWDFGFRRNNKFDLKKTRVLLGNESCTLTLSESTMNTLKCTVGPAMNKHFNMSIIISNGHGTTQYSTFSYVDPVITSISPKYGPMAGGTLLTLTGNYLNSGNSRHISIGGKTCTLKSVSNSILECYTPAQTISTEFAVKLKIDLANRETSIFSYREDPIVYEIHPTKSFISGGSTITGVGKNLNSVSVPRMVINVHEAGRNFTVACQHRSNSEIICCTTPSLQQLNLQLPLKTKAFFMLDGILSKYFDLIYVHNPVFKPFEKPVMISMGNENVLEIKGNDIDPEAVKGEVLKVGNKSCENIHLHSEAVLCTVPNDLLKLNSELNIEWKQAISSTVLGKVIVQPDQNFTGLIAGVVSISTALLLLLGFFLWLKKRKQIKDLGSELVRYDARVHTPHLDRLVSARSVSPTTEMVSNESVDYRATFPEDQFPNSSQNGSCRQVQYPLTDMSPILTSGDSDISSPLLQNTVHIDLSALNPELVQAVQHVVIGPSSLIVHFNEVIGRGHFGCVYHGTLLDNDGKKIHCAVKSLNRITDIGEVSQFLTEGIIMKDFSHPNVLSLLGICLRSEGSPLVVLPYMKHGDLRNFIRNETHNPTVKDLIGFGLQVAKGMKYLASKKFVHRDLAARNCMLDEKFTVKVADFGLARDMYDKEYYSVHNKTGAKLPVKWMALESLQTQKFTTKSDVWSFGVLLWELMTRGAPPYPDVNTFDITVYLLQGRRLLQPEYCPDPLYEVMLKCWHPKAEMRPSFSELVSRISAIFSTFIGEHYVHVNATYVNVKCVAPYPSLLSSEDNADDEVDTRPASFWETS

[4] = molecular target: Serine/threonine-protein kinase VRK2 (Homo sapiens) (UniProt Q86Y07); assay: Selectivity interaction (ProQinase) EUB0000171b VRK2
Chain of Serine/threonine-protein kinase VRK2 (Homo sapiens) (Q86Y07 whole entry): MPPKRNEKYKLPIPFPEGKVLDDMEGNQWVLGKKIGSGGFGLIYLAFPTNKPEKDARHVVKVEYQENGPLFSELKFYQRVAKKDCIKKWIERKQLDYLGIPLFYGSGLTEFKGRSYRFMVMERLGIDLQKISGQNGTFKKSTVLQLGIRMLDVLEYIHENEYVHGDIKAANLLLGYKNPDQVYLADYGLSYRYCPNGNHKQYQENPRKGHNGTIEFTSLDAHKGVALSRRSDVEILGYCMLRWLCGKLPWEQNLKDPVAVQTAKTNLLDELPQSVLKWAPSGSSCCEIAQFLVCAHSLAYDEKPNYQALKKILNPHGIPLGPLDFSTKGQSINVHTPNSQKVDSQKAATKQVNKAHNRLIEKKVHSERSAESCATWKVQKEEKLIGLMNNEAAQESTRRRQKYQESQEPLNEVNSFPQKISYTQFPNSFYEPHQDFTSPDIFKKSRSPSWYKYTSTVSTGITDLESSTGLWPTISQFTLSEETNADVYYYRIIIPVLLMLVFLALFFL

[5] = molecular target: MAP/microtubule affinity-regulating kinase 3 (Homo sapiens) (UniProt P27448); assay: Selectivity interaction (KinomeScan (DiscoverX)) EUB0000695a MARK3; settings: at 100 nM
[6] = molecular target: Hepatocyte growth factor-like protein (Homo sapiens) (UniProt P26927); assay: Selectivity interaction (KinomeScan (DiscoverX)) EUB0000595a MST1; settings: at 10 µM
[7] = molecular target: T2, Casein kinase I isoform alpha-like (Homo sapiens) (UniProt Q8N752); assay: Selectivity interaction (KinomeScan (DiscoverX)) EUB0001049a CSNK1A1L; settings: at 1 µM
T2 sequence (whole entry): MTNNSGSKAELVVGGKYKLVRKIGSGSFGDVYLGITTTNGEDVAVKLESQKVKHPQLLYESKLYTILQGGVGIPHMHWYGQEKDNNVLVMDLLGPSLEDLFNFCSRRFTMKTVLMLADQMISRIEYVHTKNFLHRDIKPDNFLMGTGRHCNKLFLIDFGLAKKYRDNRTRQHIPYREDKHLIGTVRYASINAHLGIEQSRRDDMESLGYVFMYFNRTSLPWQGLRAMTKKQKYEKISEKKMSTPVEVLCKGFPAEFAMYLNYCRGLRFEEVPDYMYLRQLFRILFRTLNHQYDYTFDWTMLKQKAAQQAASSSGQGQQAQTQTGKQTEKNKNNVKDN

[8] = molecular target: Serine/threonine-protein kinase 10 (Homo sapiens) (UniProt O94804); assay: Selectivity interaction (Kinase panel (KiNativ target engagement assay in Jurkat cells)) EUB0001635a STK10; format: cell-based; settings: Selectivity number of off-targets 0.0, Selectivity number of targets 233.0, Source Knowledge https://www.sciencedirect.com/science/article/pii/S2451945619300674?via%3Dihub, at 1 µM
Chain of Serine/threonine-protein kinase 10 (Homo sapiens) (O94804 whole entry, looked up): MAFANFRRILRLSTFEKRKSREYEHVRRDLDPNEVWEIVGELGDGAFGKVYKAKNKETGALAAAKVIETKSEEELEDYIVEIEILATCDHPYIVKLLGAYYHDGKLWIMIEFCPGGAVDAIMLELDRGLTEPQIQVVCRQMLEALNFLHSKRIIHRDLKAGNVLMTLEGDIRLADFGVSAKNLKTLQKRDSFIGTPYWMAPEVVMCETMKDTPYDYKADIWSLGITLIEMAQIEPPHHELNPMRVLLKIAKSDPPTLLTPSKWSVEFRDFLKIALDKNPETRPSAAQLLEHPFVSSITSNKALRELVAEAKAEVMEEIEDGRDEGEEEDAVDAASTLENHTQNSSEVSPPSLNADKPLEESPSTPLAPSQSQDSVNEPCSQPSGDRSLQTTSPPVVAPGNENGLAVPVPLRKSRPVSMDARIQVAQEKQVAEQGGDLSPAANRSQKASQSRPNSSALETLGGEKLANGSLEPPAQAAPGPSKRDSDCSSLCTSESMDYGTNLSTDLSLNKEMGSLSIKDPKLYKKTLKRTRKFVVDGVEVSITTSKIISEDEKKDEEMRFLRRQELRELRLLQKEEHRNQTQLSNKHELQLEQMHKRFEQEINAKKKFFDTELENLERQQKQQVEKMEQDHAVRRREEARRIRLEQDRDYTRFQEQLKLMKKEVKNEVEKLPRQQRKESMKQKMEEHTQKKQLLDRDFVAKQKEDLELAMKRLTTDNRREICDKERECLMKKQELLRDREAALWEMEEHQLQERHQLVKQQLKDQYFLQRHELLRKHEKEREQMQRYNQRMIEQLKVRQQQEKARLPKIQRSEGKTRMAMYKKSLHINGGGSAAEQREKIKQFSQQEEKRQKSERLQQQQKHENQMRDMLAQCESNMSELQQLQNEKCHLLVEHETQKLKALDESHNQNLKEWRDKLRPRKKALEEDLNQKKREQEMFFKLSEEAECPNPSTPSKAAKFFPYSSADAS

[9] = molecular target: T3, Ephrin type-B receptor 3 (Homo sapiens) (UniProt P54753); assay: Selectivity interaction (KinomeScan (DiscoverX)) EUB0000229b EPHB3; settings: at 10 µM
T3 sequence (whole entry): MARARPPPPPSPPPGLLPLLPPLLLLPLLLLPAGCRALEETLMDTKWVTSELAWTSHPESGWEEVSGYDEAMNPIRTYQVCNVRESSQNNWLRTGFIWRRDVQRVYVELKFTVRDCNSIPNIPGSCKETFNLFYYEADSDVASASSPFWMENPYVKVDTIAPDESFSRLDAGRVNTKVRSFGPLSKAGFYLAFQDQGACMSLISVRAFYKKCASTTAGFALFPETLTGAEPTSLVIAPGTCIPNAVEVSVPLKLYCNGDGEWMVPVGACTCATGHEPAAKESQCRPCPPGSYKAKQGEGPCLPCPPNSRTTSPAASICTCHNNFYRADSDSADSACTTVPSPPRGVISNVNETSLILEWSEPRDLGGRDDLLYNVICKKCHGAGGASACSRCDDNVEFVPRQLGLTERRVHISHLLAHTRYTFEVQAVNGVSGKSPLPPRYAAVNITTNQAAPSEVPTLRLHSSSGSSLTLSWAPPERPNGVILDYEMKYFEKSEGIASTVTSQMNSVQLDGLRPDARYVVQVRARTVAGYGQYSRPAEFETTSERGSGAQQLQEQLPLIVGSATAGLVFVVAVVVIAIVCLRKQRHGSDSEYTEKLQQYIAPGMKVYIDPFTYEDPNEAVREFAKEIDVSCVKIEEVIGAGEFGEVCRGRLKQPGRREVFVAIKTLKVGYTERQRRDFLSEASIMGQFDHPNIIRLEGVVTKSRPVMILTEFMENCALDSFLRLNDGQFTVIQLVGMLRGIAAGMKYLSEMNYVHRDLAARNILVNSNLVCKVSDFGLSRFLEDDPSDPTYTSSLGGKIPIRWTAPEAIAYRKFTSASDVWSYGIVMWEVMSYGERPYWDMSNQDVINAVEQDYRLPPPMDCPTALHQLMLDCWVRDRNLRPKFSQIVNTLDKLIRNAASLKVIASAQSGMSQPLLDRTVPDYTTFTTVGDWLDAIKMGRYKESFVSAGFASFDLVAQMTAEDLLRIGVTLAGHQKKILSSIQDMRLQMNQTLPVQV

[10] = molecular target: Receptor tyrosine-protein kinase erbB-2 (Homo sapiens, UniProt P04626); assay: Selectivity interaction (KinomeScan (DiscoverX)) EUB0000229b ERBB2; settings: at 10 µM
SRSF protein kinase 1 = SRSF protein kinase 1 (Homo sapiens, UniProt Q96SB4); assay: Selectivity interaction (KinomeScan (DiscoverX)) EUB0000618a SRPK1; settings: at 10 µM
Chain of SRSF protein kinase 1 (Q96SB4 whole entry): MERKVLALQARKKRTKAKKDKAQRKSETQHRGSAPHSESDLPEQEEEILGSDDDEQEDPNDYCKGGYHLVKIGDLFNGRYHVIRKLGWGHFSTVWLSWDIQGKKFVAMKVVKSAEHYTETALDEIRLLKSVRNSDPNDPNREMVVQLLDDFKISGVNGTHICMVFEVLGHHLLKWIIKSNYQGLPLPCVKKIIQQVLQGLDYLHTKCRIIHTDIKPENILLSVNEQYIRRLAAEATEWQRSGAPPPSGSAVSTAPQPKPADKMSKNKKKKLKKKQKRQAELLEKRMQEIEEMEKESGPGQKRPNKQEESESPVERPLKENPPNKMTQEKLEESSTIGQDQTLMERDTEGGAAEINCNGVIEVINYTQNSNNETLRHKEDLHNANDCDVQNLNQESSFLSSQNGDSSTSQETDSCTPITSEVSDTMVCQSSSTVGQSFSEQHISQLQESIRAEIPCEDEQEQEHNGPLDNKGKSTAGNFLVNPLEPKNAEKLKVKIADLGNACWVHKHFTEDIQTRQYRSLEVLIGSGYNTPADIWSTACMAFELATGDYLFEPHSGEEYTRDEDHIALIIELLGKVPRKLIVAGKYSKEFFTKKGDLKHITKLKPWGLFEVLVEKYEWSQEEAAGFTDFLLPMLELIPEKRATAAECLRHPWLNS

Chain of Fibroblast growth factor receptor 1 (P11362 22-822 limits assumed): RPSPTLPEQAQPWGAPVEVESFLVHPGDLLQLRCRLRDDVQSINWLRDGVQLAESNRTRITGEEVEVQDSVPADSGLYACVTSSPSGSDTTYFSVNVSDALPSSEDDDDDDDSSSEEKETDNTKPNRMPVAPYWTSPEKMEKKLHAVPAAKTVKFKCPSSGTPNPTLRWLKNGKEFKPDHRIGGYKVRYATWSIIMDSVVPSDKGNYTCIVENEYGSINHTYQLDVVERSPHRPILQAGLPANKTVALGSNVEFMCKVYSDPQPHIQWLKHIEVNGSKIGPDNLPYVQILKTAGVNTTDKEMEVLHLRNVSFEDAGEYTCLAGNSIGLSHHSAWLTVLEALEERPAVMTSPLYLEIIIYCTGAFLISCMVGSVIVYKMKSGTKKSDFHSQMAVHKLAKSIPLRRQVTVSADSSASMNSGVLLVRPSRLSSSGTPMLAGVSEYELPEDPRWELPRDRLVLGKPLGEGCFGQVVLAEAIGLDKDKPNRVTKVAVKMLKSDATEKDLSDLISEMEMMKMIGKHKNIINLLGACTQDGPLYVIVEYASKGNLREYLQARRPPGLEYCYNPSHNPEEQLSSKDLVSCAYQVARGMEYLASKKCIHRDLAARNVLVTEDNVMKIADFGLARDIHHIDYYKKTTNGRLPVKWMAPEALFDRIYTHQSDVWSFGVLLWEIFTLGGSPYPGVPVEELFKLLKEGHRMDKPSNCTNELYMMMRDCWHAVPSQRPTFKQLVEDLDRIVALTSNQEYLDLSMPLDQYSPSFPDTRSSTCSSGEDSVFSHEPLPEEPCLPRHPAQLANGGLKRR

- % of control [1]: 30.2%
Compound: Cn1cc(-n2cnc3c(NCc4nc5cc(Cl)c(Cl)cc5[nH]4)nc(N4CCOCC4)nc32)cn1

- XC50 (KCNE1): > 25.1 µM
Compound: CCn1c(-c2nc3cc(C(=O)N4CCCC(N)C4)ccc3n2C)cc2ccccc21 (stereo not drawn)

- % of inhibition [2]: 9%
Compound: Cc1ccc(-c2ccc3c(ccc4sc5c(c43)NC[C@@H](C)NC5=O)n2)cn1

- % of control [3]: 100%
Compound: CCN(CC)CCCCNc1ncc2cc(-c3cc(OC)cc(OC)c3)c(NC(=O)NC(C)(C)C)nc2n1

- % of control ([4]; at 1 µM): 97%
- % of control ([4]; at 5 µM): 83%
Compound: C=CC(=O)Nc1cccc(C(=O)Nc2ccc(Nc3cc(-c4[nH]c(SC)nc4C)ccn3)cc2)c1

Compound: Cc1cc(F)c(C(=O)Nc2cccc(-c3nncn3C(C)C)n2)cc1-n1cnc(C2CC2)c1
- % of control [5]: 90%

Compound: COCC(=O)NC/C=C/c1ccc2ncnc(Nc3ccc(Oc4ccc(C)nc4)c(C)c3)c2c1 [CP-724714]
- % of control [6]: 87%

Compound: COc1cc(Nc2nc(C)cc(-c3cnn4nc(OC)ccc34)n2)cc(C(F)(F)F)c1
- % of control [7]: 100%

Compound: C=CC(=O)Nc1ccc(C(=O)Nc2[nH]nc3c2CN(C(=O)N[C@H](CN(C)C)c2ccccc2)C3(C)C)cc1
- % of engagement [8]: -1.6%

Compound: COc1cc(N(C)c2ccnc3ccc(C(F)(F)F)cc23)cc(OC)c1OC
- % binding [9]: 85%
- % binding [10]: 62%

Compound: O[C@H]1CC[C@H](Nc2ncc3nc(Nc4c(F)cc(F)cc4F)n([C@H]4CCOC4)c3n2)CC1
- % of control (SRSF protein kinase 1): 100%
